Assay results: patent publication US6153604A, “Therapeutic substituted guanidines” (Cambridge NeuroScience, Inc., priority 1995, dated 2000)
Counter-ions that a name gives are not always drawn.

Experiments:
[1] = target: PCP receptor; assay: PCP receptor radioligand binding assay ([3H]MK-801, rat brain membranes); details: read-out: [3H-MK801] IC50; displacement of [3H]MK-801, rat brain membranes
[2] = target: sigma receptor; assay: Sigma receptor binding assay ([3H]DTG, guinea pig brain membrane homogenates); details: displacement of [3H]DTG, guinea pig brain membranes
Experimental: Sigma Receptor Binding Assay
Briefly, frozen whole guinea-pig brains (Biotrol, Indianapolis, Ind.) were homogenized in 10 volumes (w/v) of ice-cold 320 mM sucrose using a Brinkman polytron. The homogenate was centrifuged at 1,000×g for 20 minutes at 4° C. The supernatant was centrifuged at 20,000×g for 20 minutes at 4° C. The resulting pellet was resuspended in 10 initial volumes of 50 mM Tris/HCl buffer at pH 7.4 and centrifuged at 20,000×g for 20 minutes at 4° C. The resulting pellet was resuspended in 5 initial volumes ice-cold 50 mM Tris/HCl (pH 7.4), and the final volume was adjusted to yield a protein concentration of 3 mg/ml. Aliquots of 20-ml were stored at -70° C. until used, with no detectable loss of binding.
The protein concentration in the 1-ml final incubation volume was 800 μg/ml, corresponding to 32 mg of brain tissue (original wet weight) and to a tissue concentration within the linear range for specific binding. […] Incubations were terminated after 90 minutes at room temperature by addition of 4 ml of ice-cold 50 mM Tris/HCl (pH 7.4) and rapid filtration of the membrane suspension through Whatman GF/B glass-fiber filters under vacuum, using a 48-well cell harvester (Brandel). The filters were washed 2 times with 4 ml of 50 mM Tris/HCl (pH 7.4). […] IC50 values were determined by non-linear regression analysis.

Compound | IC50 [1] [nM] | IC50 [2] [nM]
CCc1cccc(NC(=N)Nc2cccc(Cl)c2)c1 [Compd. No. 3 (Table I)] | 146 | 15.5
CCc1cccc(NC(=N)Nc2cc(C(F)(F)F)ccc2Br)c1 [Compd. No. 4 (Table I), N-(3-Ethylphenyl)-N'-(2-bromo-5-trifluoromethylphenyl)guanidine hydrochloride] | 86.9 | 10.3
CCc1cccc(NC(=N)Nc2cc(C(F)(F)F)ccc2Cl)c1 [Compd. No. 6 (Table I), N-(3-Ethylphenyl)-N'-(2-chloro-5-trifluoromethylphenyl)guanidine hydrochloride] | 57.1 | 14.2
CCc1cccc(NC(=N)Nc2cc(C)ccc2Cl)c1 [Compd. No. 7 (Table I), N-(3-Ethylphenyl)-N'-(2-chloro-5-methylphenyl)guanidine hydrochloride] | 100 | 30.6
CCc1cccc(NC(=N)Nc2cc(CC)ccc2Cl)c1 [Compd. No. 8 (Table I), N-(3-Ethylphenyl)-N'-(2-chloro-5-ethylphenyl)guanidine hydrochloride] | 45.2 | 2.04
CCc1cccc(NC(=N)Nc2cccc(CC)c2)c1 [Compd. No. 9 (Table I)] | 168 | 8
CCc1cccc(N(C)C(=N)Nc2cc(Cl)ccc2Cl)c1 [Compd. No. 10 (Table I), N-(3-ethylphenyl)-N-methyl-N'-(2,5-dichlorophenyl)guanidine hydrochloride] | 84.6 | 28.5
CCc1cccc(N(C)C(=N)Nc2cc(Br)ccc2Br)c1 [Compd. No. 11 (Table I), N-(3-ethylphenyl)-N-methyl-N'-(2,5-dibromophenyl)guanidine hydrochloride] | 47.6 | 40.2
CCc1cccc(N(C)C(=N)Nc2cccc(Cl)c2)c1 [Compd. No. 12 (Table I)] | 646 | 43.5
CCc1cccc(N(C)C(=N)Nc2cc(C(F)(F)F)ccc2Br)c1 [Compd. No. 13 (Table I), N-(3-Ethylphenyl)-N-methyl-N'-(2-bromo-5-trifluoromethylphenyl)guanidine hydrochloride] | 102 | 208
CCc1cccc(N(C)C(=N)Nc2cc(C(F)(F)F)ccc2F)c1 [Compd. No. 14 (Table I), N-(3-Ethylphenyl)-N-methyl-N'-(2-fluoro-5-trifluoromethylphenyl)guanidine hydrochloride] | 252 | 85
CCc1cccc(N(C)C(=N)Nc2cc(C(F)(F)F)ccc2Cl)c1 [Compd. No. 15 (Table I), N-(3-Ethylphenyl)-N-methyl-N'-(2-chloro-5-trifluoromethylphenyl)guanidine hydrochloride] | 131 | 120
CCc1cccc(N(C)C(=N)Nc2cc(CC)ccc2Cl)c1 [Compd. No. 17 (Table I), N-(3-Ethylphenyl)-N-methyl-N'-(2-chloro-5-ethylphenyl)guanidine hydrochloride] | 53 | 115
CCc1cccc(N(C)C(=N)Nc2cccc(Br)c2)c1 [Compd. No. 19 (Table I)] | 105 | 40
CCc1cccc(N(C)C(=N)Nc2cc(CC)ccc2F)c1 [Compd. No. 20 (Table I), N-(3-Ethylphenyl)-N-methyl-N'-(2-fluoro-5-ethylphenyl)guanidine hydrochloride] | 126 | 112
CCc1cccc(NC(=N)Nc2cc(CC)ccc2F)c1 [Compd. No. 21 (Table I), N-(3-Ethylphenyl)-N'-(2-fluoro-5-ethylphenyl)guanidine hydrochloride] | 64.8 | 7.4
CCc1cccc(N(C)C(=N)Nc2cc(CC)ccc2Br)c1 [Compd. No. 22 (Table I), N-(3-Ethylphenyl)-N-methyl-N'-(2-bromo-5-ethylphenyl)guanidine hydrochloride] | 16.7 | 203
CCc1cccc(NC(=N)Nc2cc(CC)ccc2Br)c1 [Compd. No. 23 (Table I), N-(3-Ethylphenyl)-N'-(2-bromo-5-ethylphenyl)guanidine hydrochloride] | 38.3 | 5.07
CCc1cccc(N(C)C(=N)Nc2cc(SC)ccc2Cl)c1 [Compd. No. 24 (Table I), N-13-Ethylphenyl)-N-methyl-N'-(2-chloro-5-methylthiophenyl)guanidine hydrochloride] | 6.7 | 310
CCc1cccc(NC(=N)Nc2cc(SC)ccc2Cl)c1 [Compd. No. 25 (Table I), N-(3-Ethylphenyl)-N'-(2-chloro-5-methylthiophenyl)guanidine hydrochloride] | 15.4 | 15.8
CCc1cccc(N(C)C(=N)N(C)c2cc(Cl)ccc2Cl)c1 [Compd. No. 26 (Table I), N-(3-Ethylphenyl)-N-methyl-N'-(2,5-dichlorophenyl)-N'-methylguanidine hydrochloride] | 93.7 | 

Compound | IC50 [1] [nM] | IC50 [2] [nM]
CCc1cccc(N(C)C(=N)N(C)c2cc(Br)ccc2Br)c1 [Compd. No. 27 (Table I), N-(3-Ethylphenyl)-N-methyl-N'-(2,5-dibromophenyl)-N'-methylguanidine hydrochloride] | 35.5 | 380
CCc1cccc(N(C)C(=N)N(C)c2cc(CC)ccc2Cl)c1 [Compd. No. 28 (Table I), N-(3-Ethylphenyl)-N-methyl-N'-(2-chloro-5-ethylphenyl)-N'-methylguanidine hydrochloride] | 145 | 
CCc1ccc(Cl)c(NC(=N)Nc2cc(C)ccc2Cl)c1 [Compd. No. 29 (Table I)] | 54.7 | 36.1
N=C(Nc1cc(Cl)ccc1Cl)Nc1cccc2ccccc12 [Compd. No. 31 (Table I), N-(1-naphthyl)-N'-(2,5-dichlorophenyl)guanidine] | 41 | 25
N=C(Nc1cc(Br)ccc1Br)Nc1cccc2ccccc12 [Compd. No. 32 (Table I), N-(1-Naphthyl)-N'-(2,5-dibromophenyl)guanidine hydrochloride] | 48.6 | 37.6
Cc1ccc(C)c(NC(=N)Nc2cccc3ccccc23)c1 [Compd. No. 33 (Table I), N-(1-Naphthyl)-N'-(2,5-dimethylphenyl)guanidine hydrochloride] | 79.2 | 27.4
Cc1cccc(NC(=N)Nc2cccc3ccccc23)c1 [Compd. No. 38 (Table I)] | 192 | 75
N=C(Nc1cc(C(F)(F)F)ccc1F)Nc1cccc2ccccc12 [Compd. No. 39 (Table I), N-(1-Naphthyl)-N'-(2-fluoro-5-trifluoromethylphenyl)guanidine hydrochloride] | 38.4 | 79.4
N=C(Nc1cc(C(F)(F)F)ccc1Cl)Nc1cccc2ccccc12 [Compd. No. 40 (Table I), N-(1-Naphthyl)-N'-(2-chloro-5-trifluoromethylphenyl)guanidine hydrochloride] | 38.6 | 52.5
CN(C(=N)Nc1cccc2ccccc12)c1cccc(Br)c1 [Compd. No. 53 (Table I)] | 54 | 
CSc1cccc(N(C)C(=N)Nc2cc(SC)ccc2Br)c1 [Compd. No. 63 (Table I), N-(3-Methylthiophenyl)-N-methyl-N'-(2-bromo-5-methylthiophenyl)guanidine] | 2.15 | 
CCc1ccc(Br)c(NC(=N)N(C)c2cccc(SC)c2)c1 [Compd. No. 64 (Table I), N-(3-Methylthiophenyl)-N-methyl-N'-(2-bromo-5-ethylphenyl)guanidine hydrochloride] |  | 180
CSc1cccc(N(C)C(=N)Nc2cc(Br)ccc2Br)c1 [Compd. No. 65 (Table I), N-(3-Methylthiophenyl)-N-methyl-N'-(2,5-dibromophenyl)guanidine hydrochloride] | 5.38 | 
CN(C(=N)Nc1cc(Cl)ccc1Cl)c1cccc(C(F)(F)F)c1 [Compd. No. 68 (Table I), N-(3-Trifluoromethylphenyl)-N-methyl-N'-(2,5-dichlorophenyl)guanidine hydrochloride] |  | 110
CSc1ccc(Cl)c(NC(=N)N(C)c2cccc(Br)c2)c1 [Compd. No. 72 (Table I), N-(3-Bromophenyl)-N-methyl-N'-(2-chloro-5-methylthiophenyl)guanidine hydrochloride] | 4.65 | 
CN(C(=N)Nc1cc(Br)ccc1Br)c1cccc(OC(F)(F)F)c1 [Compd. No. 73 (Table I), N-(3-Trifluoromethoxyphenyl)-N'-(2,5-dibromophenyl)-N-methylguanidine hydrochloride] | 25.6 | 
CCc1ccc(Br)c(NC(=N)N(C)c2cccc(OC(F)(F)F)c2)c1 [Compound 74] | 16 | 
CN(C(=N)Nc1cc(Br)ccc1Br)c1cccc(S(C)(=O)=O)c1 [Compound 75] | 530 | 
CN(C(=N)Nc1cc(Br)ccc1Br)c1cccc([S+](C)[O-])c1 (stereo not shown) [Compound 76] | 322 | 
CSc1ccc(Cl)c(NC(=N)N(C)c2cccc(I)c2)c1 [Compound 77] | 2.11 | 
CCc1ccc(Cl)c(NC(=N)Nc2cccc(I)c2)c1 [Compound 78] | 13.7 | 
